Measured values taken from the NIST ThermoML archive (doi:10.1016/j.jct.2015.02.020).
± gives the expanded uncertainty stated by the source.

Columns and labels:
[1] = refractive index (Na D-line) (dimensionless); xn = mol fraction of the nth substance listed; conditions: 101.3 kPa, Liquid, Standard Abbe refractometry
[2] = xn = mol fraction of the nth substance listed; conditions: 101.3 kPa, Liquid; for viscosity: Falling or rolling sphere viscometry; for speed of sound: Sing-around technique in a fixed-path interferometer; for mass density: Vibrating tube method

Work on `CC[n+]1ccccc1.O=S(=O)([N-]S(=O)(=O)C(F)(F)F)C(F)(F)F` [1-ethylpyridinium bis[(trifluoromethyl)sulfonyl]imide] + O yielded a refractive index ([1]; 298.15 K, x2 = 0.16) of 1.43876 ± 0.00038, a refractive index ([1]; 298.15 K, x2 = 0.213) of 1.43815 ± 0.00038 and a refractive index ([1]; 298.15 K, x2 = 0.311) of 1.43705 ± 0.00037. It also gave a refractive index ([1]; 303.15 K, x2 = 0.16) of 1.4374 ± 0.00037, a refractive index ([1]; 303.15 K, x2 = 0.213) of 1.43684 ± 0.00038 and a refractive index ([1]; 303.15 K, x2 = 0.311) of 1.43552 ± 0.00037. It also gave a refractive index ([1]; 308.15 K, x2 = 0.16) of 1.43587 ± 0.00037, a refractive index ([1]; 308.15 K, x2 = 0.213) of 1.43539 ± 0.00037 and a refractive index ([1]; 308.15 K, x2 = 0.311) of 1.43461 ± 0.00036. For the same compound, the refractive index ([1]; 313.15 K, x2 = 0.16) was 1.4344 ± 0.00036, the refractive index ([1]; 313.15 K, x2 = 0.213) was 1.43415 ± 0.00037 and the refractive index ([1]; 313.15 K, x2 = 0.311) was 1.43318 ± 0.00036. The refractive index ([1]; 318.15 K, x2 = 0.16) was 1.43296 ± 0.00036, the refractive index ([1]; 318.15 K, x2 = 0.213) was 1.43277 ± 0.00036 and the refractive index ([1]; 318.15 K, x2 = 0.311) was 1.43193 ± 0.00036. The refractive index ([1]; 323.15 K, x2 = 0.16) was 1.43144 ± 0.00036, the refractive index ([1]; 323.15 K, x2 = 0.213) was 1.43144 ± 0.00036 and the refractive index ([1]; 323.15 K, x2 = 0.311) was 1.43082 ± 0.00035. It also gave a refractive index ([1]; 328.15 K, x2 = 0.16) of 1.43003 ± 0.00036, a refractive index ([1]; 328.15 K, x2 = 0.213) of 1.42994 ± 0.00035 and a refractive index ([1]; 328.15 K, x2 = 0.311) of 1.42955 ± 0.00035. For the same compound, the refractive index ([1]; 333.15 K, x2 = 0.16) was 1.42859 ± 0.00036, the refractive index ([1]; 333.15 K, x2 = 0.213) was 1.42857 ± 0.00035 and the refractive index ([1]; 333.15 K, x2 = 0.311) was 1.42824 ± 0.00035. It also gave a refractive index ([1]; 338.15 K, x2 = 0.16) of 1.42719 ± 0.00036, a refractive index ([1]; 338.15 K, x2 = 0.213) of 1.42725 ± 0.00035 and a refractive index ([1]; 338.15 K, x2 = 0.311) of 1.42694 ± 0.00035. The refractive index ([1]; 343.15 K, x2 = 0.16) was 1.42569 ± 0.00036, the refractive index ([1]; 343.15 K, x2 = 0.213) was 1.42589 ± 0.00035 and the refractive index ([1]; 343.15 K, x2 = 0.311) was 1.42551 ± 0.00035. For the same compound, the viscosity ([2]; 298.15 K, x2 = 0.16) was 29.14 ± 0.96 mPa·s, the viscosity ([2]; 298.15 K, x2 = 0.213) was 25.97 ± 0.77 mPa·s and the viscosity ([2]; 298.15 K, x2 = 0.311) was 22.45 ± 0.65 mPa·s. For the same compound, the speed of sound ([2]; 298.15 K, x2 = 0.16) was 1270.7 ± 1.5 m/s, the speed of sound ([2]; 298.15 K, x2 = 0.213) was 1272.3 ± 1.5 m/s and the speed of sound ([2]; 298.15 K, x2 = 0.311) was 1276 ± 1.5 m/s. The mass density ([2]; 298.15 K, x2 = 0.16) was 1526.97 ± 1.1 kg/m3, the mass density ([2]; 298.15 K, x2 = 0.213) was 1523.14 ± 1.1 kg/m3 and the mass density ([2]; 298.15 K, x2 = 0.311) was 1515.34 ± 1.1 kg/m3. For the same compound, the viscosity ([2]; 303.15 K, x2 = 0.16) was 24.71 ± 0.86 mPa·s, the viscosity ([2]; 303.15 K, x2 = 0.213) was 22.07 ± 0.67 mPa·s and the viscosity ([2]; 303.15 K, x2 = 0.311) was 18.74 ± 0.55 mPa·s. The speed of sound ([2]; 303.15 K, x2 = 0.16) was 1259.7 ± 1.5 m/s, the speed of sound ([2]; 303.15 K, x2 = 0.213) was 1261.3 ± 1.5 m/s and the speed of sound ([2]; 303.15 K, x2 = 0.311) was 1265 ± 1.5 m/s. It also gave a mass density ([2]; 303.15 K, x2 = 0.16) of 1521.95 ± 1.1 kg/m3, a mass density ([2]; 303.15 K, x2 = 0.213) of 1518.1 ± 1.1 kg/m3 and a mass density ([2]; 303.15 K, x2 = 0.311) of 1510.26 ± 1.1 kg/m3. For the same compound, the viscosity ([2]; 308.15 K, x2 = 0.16) was 21.3 ± 0.74 mPa·s, the viscosity ([2]; 308.15 K, x2 = 0.213) was 18.95 ± 0.58 mPa·s and the viscosity ([2]; 308.15 K, x2 = 0.311) was 16.02 ± 0.48 mPa·s. The speed of sound ([2]; 308.15 K, x2 = 0.16) was 1248.8 ± 1.5 m/s, the speed of sound ([2]; 308.15 K, x2 = 0.213) was 1250.4 ± 1.5 m/s and the speed of sound ([2]; 308.15 K, x2 = 0.311) was 1254 ± 1.5 m/s. The mass density ([2]; 308.15 K, x2 = 0.16) was 1516.97 ± 1.1 kg/m3, the mass density ([2]; 308.15 K, x2 = 0.213) was 1513.09 ± 1.1 kg/m3 and the mass density ([2]; 308.15 K, x2 = 0.311) was 1505.19 ± 1.1 kg/m3. The viscosity ([2]; 313.15 K, x2 = 0.16) was 18.53 ± 0.65 mPa·s, the viscosity ([2]; 313.15 K, x2 = 0.213) was 16.4 ± 0.51 mPa·s and the viscosity ([2]; 313.15 K, x2 = 0.311) was 13.8 ± 0.42 mPa·s. It also gave a speed of sound ([2]; 313.15 K, x2 = 0.16) of 1238 ± 1.5 m/s, a speed of sound ([2]; 313.15 K, x2 = 0.213) of 1239.6 ± 1.5 m/s and a speed of sound ([2]; 313.15 K, x2 = 0.311) of 1243.2 ± 1.4 m/s. It also gave a mass density ([2]; 313.15 K, x2 = 0.16) of 1512 ± 1.1 kg/m3, a mass density ([2]; 313.15 K, x2 = 0.213) of 1508.09 ± 1.1 kg/m3 and a mass density ([2]; 313.15 K, x2 = 0.311) of 1500.14 ± 1.1 kg/m3. For the same compound, the viscosity ([2]; 318.15 K, x2 = 0.16) was 16.21 ± 0.57 mPa·s, the viscosity ([2]; 318.15 K, x2 = 0.213) was 14.34 ± 0.45 mPa·s and the viscosity ([2]; 318.15 K, x2 = 0.311) was 12.1 ± 0.37 mPa·s. For the same compound, the speed of sound ([2]; 318.15 K, x2 = 0.16) was 1227.4 ± 1.5 m/s, the speed of sound ([2]; 318.15 K, x2 = 0.213) was 1228.9 ± 1.5 m/s and the speed of sound ([2]; 318.15 K, x2 = 0.311) was 1232.4 ± 1.4 m/s. It also gave a mass density ([2]; 318.15 K, x2 = 0.16) of 1507.04 ± 1.1 kg/m3, a mass density ([2]; 318.15 K, x2 = 0.213) of 1503.11 ± 1.1 kg/m3 and a mass density ([2]; 318.15 K, x2 = 0.311) of 1495.11 ± 1.1 kg/m3. It also gave a viscosity ([2]; 323.15 K, x2 = 0.16) of 14.16 ± 0.47 mPa·s, a viscosity ([2]; 323.15 K, x2 = 0.213) of 12.71 ± 0.39 mPa·s and a viscosity ([2]; 323.15 K, x2 = 0.311) of 10.71 ± 0.33 mPa·s. It also gave a speed of sound ([2]; 323.15 K, x2 = 0.16) of 1216.9 ± 1.5 m/s, a speed of sound ([2]; 323.15 K, x2 = 0.213) of 1218.3 ± 1.5 m/s and a speed of sound ([2]; 323.15 K, x2 = 0.311) of 1221.8 ± 1.4 m/s. It also gave a mass density ([2]; 323.15 K, x2 = 0.16) of 1502.11 ± 1.1 kg/m3, a mass density ([2]; 323.15 K, x2 = 0.213) of 1498.16 ± 1.1 kg/m3 and a mass density ([2]; 323.15 K, x2 = 0.311) of 1490.1 ± 1.1 kg/m3. The viscosity ([2]; 328.15 K, x2 = 0.16) was 12.5 ± 0.39 mPa·s, the viscosity ([2]; 328.15 K, x2 = 0.213) was 11.35 ± 0.34 mPa·s and the viscosity ([2]; 328.15 K, x2 = 0.311) was 9.547 ± 0.3 mPa·s. For the same compound, the speed of sound ([2]; 328.15 K, x2 = 0.16) was 1206.4 ± 1.5 m/s, the speed of sound ([2]; 328.15 K, x2 = 0.213) was 1207.8 ± 1.5 m/s and the speed of sound ([2]; 328.15 K, x2 = 0.311) was 1211.2 ± 1.4 m/s. It also gave a mass density ([2]; 328.15 K, x2 = 0.16) of 1497.2 ± 1.1 kg/m3, a mass density ([2]; 328.15 K, x2 = 0.213) of 1493.22 ± 1.1 kg/m3 and a mass density ([2]; 328.15 K, x2 = 0.311) of 1485.1 ± 1.1 kg/m3. For the same compound, the viscosity ([2]; 333.15 K, x2 = 0.16) was 11.14 ± 0.34 mPa·s, the viscosity ([2]; 333.15 K, x2 = 0.213) was 10.18 ± 0.3 mPa·s and the viscosity ([2]; 333.15 K, x2 = 0.311) was 8.555 ± 0.27 mPa·s. For the same compound, the speed of sound ([2]; 333.15 K, x2 = 0.16) was 1196.1 ± 1.5 m/s, the speed of sound ([2]; 333.15 K, x2 = 0.213) was 1197.4 ± 1.5 m/s and the speed of sound ([2]; 333.15 K, x2 = 0.311) was 1200.7 ± 1.4 m/s. It also gave a mass density ([2]; 333.15 K, x2 = 0.16) of 1492.3 ± 1.1 kg/m3, a mass density ([2]; 333.15 K, x2 = 0.213) of 1488.3 ± 1.1 kg/m3 and a mass density ([2]; 333.15 K, x2 = 0.311) of 1480.12 ± 1.1 kg/m3. It also gave a viscosity ([2]; 338.15 K, x2 = 0.16) of 9.991 ± 0.3 mPa·s, a viscosity ([2]; 338.15 K, x2 = 0.213) of 9.164 ± 0.27 mPa·s and a viscosity ([2]; 338.15 K, x2 = 0.311) of 7.709 ± 0.24 mPa·s. For the same compound, the speed of sound ([2]; 338.15 K, x2 = 0.16) was 1185.9 ± 1.5 m/s, the speed of sound ([2]; 338.15 K, x2 = 0.213) was 1187.1 ± 1.5 m/s and the speed of sound ([2]; 338.15 K, x2 = 0.311) was 1190.3 ± 1.4 m/s. It also gave a mass density ([2]; 338.15 K, x2 = 0.16) of 1487.43 ± 1.1 kg/m3, a mass density ([2]; 338.15 K, x2 = 0.213) of 1483.4 ± 1.1 kg/m3 and a mass density ([2]; 338.15 K, x2 = 0.311) of 1475.16 ± 1.1 kg/m3. The viscosity ([2]; 343.15 K, x2 = 0.16) was 9.019 ± 0.26 mPa·s, the viscosity ([2]; 343.15 K, x2 = 0.213) was 8.282 ± 0.24 mPa·s and the viscosity ([2]; 343.15 K, x2 = 0.311) was 6.971 ± 0.22 mPa·s. It also gave a speed of sound ([2]; 343.15 K, x2 = 0.16) of 1175.7 ± 1.5 m/s, a speed of sound ([2]; 343.15 K, x2 = 0.213) of 1176.9 ± 1.5 m/s and a speed of sound ([2]; 343.15 K, x2 = 0.311) of 1180 ± 1.4 m/s. It also gave a mass density ([2]; 343.15 K, x2 = 0.16) of 1482.56 ± 1.1 kg/m3, a mass density ([2]; 343.15 K, x2 = 0.213) of 1478.5 ± 1.1 kg/m3 and a mass density ([2]; 343.15 K, x2 = 0.311) of 1470.22 ± 1.1 kg/m3.
